Laboratory results as given in ChEMBL document CHEMBL3396954, “Synthesis and in vitro biological evaluation of dihydroartemisinyl-chalcone esters” (Eur J Med Chem, 2015).
Blank lines part the entries; values can stand above or below the compound they belong to.

Columns and labels:
Plasmodium falciparum [1] = assay: Antimalarial activity against chloroquine-sensitive Plasmodium falciparum 3D7 assessed as inhibition of parasite proliferation after 96 hrs by SYBR Green I-based fluorescence method; assay type: functional, organism-based; conditions: 3D7, 96 h
Plasmodium falciparum [2] = assay: Antimalarial activity against chloroquine-resistant Plasmodium falciparum W2 assessed as inhibition of parasite proliferation after 96 hrs by SYBR Green I-based fluorescence method; assay type: functional, organism-based; conditions: W2, 96 h
[3] = Resistance index, ratio of IC50 for chloroquine-resistant Plasmodium falciparum W2 to IC50 for chloroquine-sensitive Plasmodium falciparum 3D7; assay type: functional
TK-10 = assay: Anticancer activity against human TK10 cells assessed as inhibition of cell growth after 24 hrs by SRB assay; assay type: functional, cell-based; conditions: TK-10, 24 h
[4] = Anticancer activity against human UACC62 cells assessed as inhibition of cell growth after 24 hrs by SRB assay; assay type: functional, cell-based; conditions: UACC-62, 24 h
MCF7 [5] = assay: Anticancer activity against human MCF7 cells assessed as inhibition of cell growth after 24 hrs by SRB assay; assay type: functional, cell-based; conditions: MCF7, 24 h
[6] = Selectivity index, ratio of IC50 for chloroquine-resistant Plasmodium falciparum W2 to IC50 for human TK10 cells; design: species or system TK-10
[7] = Selectivity index, ratio of IC50 for chloroquine-resistant Plasmodium falciparum W2 to IC50 for human MCF7 cells
[8] = Cytotoxicity against human WI38 cells assessed as inhibition of proliferation after 24 hrs by SRB assay; assay type: cell-based; conditions: WI-38, 24 h
WI-38 = assay: Selectivity index, ratio of IC50 for human WI38 cells to IC50 for human TK10 cells; assay type: functional
UACC-62 = assay: Selectivity index, ratio of IC50 for human WI38 cells to IC50 for human UACC62 cells; assay type: functional
[9] = Selectivity index, ratio of IC50 for chloroquine-resistant Plasmodium falciparum W2 to IC50 for human UACC62 cells; design: species or system UACC-62
MCF7 [10] = assay: Selectivity index, ratio of IC50 for human WI38 cells to IC50 for human MCF7 cells; assay type: functional
[11] = Selectivity index, ratio of IC50 for human WI38 cells to IC50 for chloroquine-sensitive Plasmodium falciparum 3D7; assay type: toxicity, cell-based, WI-38; conditions: read-out: Ratio IC50

Structure (SMILES): C[C@H]1[C@@H](O)O[C@@H]2O[C@@]3(C)CC[C@H]4[C@H](C)CC[C@@H]1[C@@]24OO3 [ARTENIMOL]
- IC50 (Plasmodium falciparum [1]): 0.00145 µM
- IC50 (Plasmodium falciparum [2]): 0.00131 µM
- Ratio IC50 [3]: 0.9

- IC50 (MCF7 [5]): 2.4 µM
Structure (SMILES): C=C1C(=O)O[C@@H]2C3O[C@]3(C)CC/C=C(\C)CC[C@@H]12 (stereo partly drawn)
- IC50 (TK-10): 3.71 µM
- IC50 [4]: 9.71 µM

Structure (SMILES): COc1ccc(C(=O)/C=C/c2ccc(C(=O)OC3O[C@@H]4O[C@]5(C)CC[C@H]6[C@H](C)CC[C@@H]([C@H]3C)[C@@]46OO5)cc2)cc1OC (stereo partly drawn)
- IC50 (Plasmodium falciparum [1]): 0.00336 µM
- Ratio IC50 [6]: >4105
- Ratio IC50 [7]: >2329
- IC50 [8]: > 100 µM
- Ratio IC50 (WI-38): >17
- Ratio IC50 (UACC-62): >19
- IC50 (TK-10): 5.99 µM
- IC50 [4]: 5.19 µM
- Ratio IC50 [9]: >3556
- Ratio IC50 (MCF7 [10]): >29
- selectivity ratio [11]: > 29800
- IC50 (Plasmodium falciparum [2]): 0.00146 µM
- IC50 (MCF7 [5]): 3.4 µM
- Ratio IC50 [3]: 0.4

Structure (SMILES): COc1ccc(C(=O)/C=C/c2ccc(C(=O)O)cc2)c(OC)c1
- IC50 (Plasmodium falciparum [1]): 0.0148 µM
- Ratio IC50 [6]: 4
- Ratio IC50 [7]: 1.9
- IC50 [8]: 48.6 µM
- Ratio IC50 (WI-38): 0.8
- Ratio IC50 (UACC-62): 7.2
- IC50 (TK-10): 59.6 µM
- IC50 [4]: 6.75 µM
- Ratio IC50 [9]: 0.5
- Ratio IC50 (MCF7 [10]): 1.7
- selectivity ratio [11]: 3.3
- IC50 (Plasmodium falciparum [2]): 0.0148 µM
- IC50 (MCF7 [5]): 28.1 µM
- Ratio IC50 [3]: 1

Structure (SMILES): COc1ccc(C(=O)/C=C/c2ccc(C(=O)O)cc2)cc1[N+](=O)[O-]
- IC50 (Plasmodium falciparum [1]): 0.0407 µM
- Ratio IC50 [6]: 0.7
- Ratio IC50 [7]: 0.3
- IC50 [8]: 29 µM
- Ratio IC50 (WI-38): 1.4
- Ratio IC50 (UACC-62): 2.2
- IC50 (TK-10): 21.1 µM
- IC50 [4]: 13.4 µM
- Ratio IC50 [9]: 0.4
- Ratio IC50 (MCF7 [10]): 3
- selectivity ratio [11]: 0.7
- IC50 (Plasmodium falciparum [2]): 0.0312 µM
- IC50 (MCF7 [5]): 9.52 µM
- Ratio IC50 [3]: 0.8

Structure (SMILES): C[C@@H]1CC[C@H]2[C@@H](C)C(OC(=O)c3ccc(/C=C/C(=O)c4ccccc4)cc3)O[C@@H]3O[C@]4(C)CC[C@@H]1[C@]32OO4 (stereo partly drawn)
- IC50 (Plasmodium falciparum [1]): 0.00973 µM
- Ratio IC50 [6]: >786
- Ratio IC50 [7]: >339
- IC50 [8]: > 100 µM
- Ratio IC50 (WI-38): >12
- Ratio IC50 (UACC-62): >19
- IC50 (TK-10): 8.32 µM
- IC50 [4]: 5.35 µM
- Ratio IC50 [9]: >505
- Ratio IC50 (MCF7 [10]): >28
- selectivity ratio [11]: > 10300
- IC50 (Plasmodium falciparum [2]): 0.0106 µM
- IC50 (MCF7 [5]): 3.59 µM
- Ratio IC50 [3]: 1.1

Structure (SMILES): Cc1ccc(C(=O)/C=C/c2ccc(C(=O)O)cc2)o1
- IC50 (Plasmodium falciparum [1]): 0.0183 µM
- Ratio IC50 [6]: 5.2
- Ratio IC50 [7]: 1.1
- IC50 [8]: 32 µM
- Ratio IC50 (WI-38): 0.4
- Ratio IC50 (UACC-62): 0.6
- IC50 (TK-10): 90 µM
- IC50 [4]: 58 µM
- Ratio IC50 [9]: 3.3
- Ratio IC50 (MCF7 [10]): 1.6
- selectivity ratio [11]: 1.7
- IC50 (Plasmodium falciparum [2]): 0.0173 µM
- IC50 (MCF7 [5]): 19.7 µM
- Ratio IC50 [3]: 0.9

Structure (SMILES): C[C@H]1[C@@H](OC(=O)c2ccc(/C=C/C(=O)c3ccc(Cl)c(Cl)c3Cl)cc2)O[C@@H]2O[C@]3(C)CC[C@H]4[C@H](C)CC[C@@H]1[C@@]24OO3
- IC50 (Plasmodium falciparum [1]): 0.0107 µM
- Ratio IC50 [6]: 9198.6
- Ratio IC50 [7]: 2549.7
- IC50 [8]: 61.9 µM
- Ratio IC50 (WI-38): 1.2
- Ratio IC50 (UACC-62): 2.2
- IC50 (TK-10): 53.7 µM
- IC50 [4]: 28.5 µM
- Ratio IC50 [9]: 4873.3
- Ratio IC50 (MCF7 [10]): 4.2
- selectivity ratio [11]: 5800
- IC50 (Plasmodium falciparum [2]): 0.00584 µM
- IC50 (MCF7 [5]): 14.9 µM
- Ratio IC50 [3]: 0.5

Structure (SMILES): COc1ccc(C(=O)/C=C/c2ccc(C(=O)OC3O[C@@H]4O[C@]5(C)CC[C@H]6[C@H](C)CC[C@@H]([C@H]3C)[C@@]46OO5)cc2)c(OC)c1 (stereo partly drawn)
- IC50 (Plasmodium falciparum [1]): 0.00302 µM
- Ratio IC50 [6]: >10799
- Ratio IC50 [7]: >500
- IC50 [8]: > 100 µM
- Ratio IC50 (WI-38): >5
- Ratio IC50 (UACC-62): >23
- IC50 (TK-10): 22 µM
- IC50 [4]: 4.33 µM
- Ratio IC50 [9]: >2123
- Ratio IC50 (MCF7 [10]): >100
- selectivity ratio [11]: > 33100
- IC50 (Plasmodium falciparum [2]): 0.00204 µM
- IC50 (MCF7 [5]): 1.02 µM
- Ratio IC50 [3]: 0.7

Structure (SMILES): CCN(CC)CCCC(C)Nc1ccnc2cc(Cl)ccc12 (stereo not drawn) [CHLOROQUINE]
- IC50 [8]: 3.63 µM

Structure (SMILES): C[C@H]1[C@H](OC(=O)CCC(=O)O)O[C@@H]2O[C@@]3(C)CC[C@H]4[C@H](C)CC[C@@H]1[C@@]24OO3 [ARTESUNATE]
- IC50 (Plasmodium falciparum [1]): 0.004 µM
- IC50 (Plasmodium falciparum [2]): 0.00571 µM

Structure (SMILES): O=C(O)c1ccc(/C=C/C(=O)c2ccc(Cl)c(Cl)c2Cl)cc1
- IC50 (Plasmodium falciparum [1]): 0.041 µM
- Ratio IC50 [6]: 0.4
- Ratio IC50 [7]: 0.1
- IC50 [8]: 20.4 µM
- Ratio IC50 (WI-38): 0.9
- Ratio IC50 (UACC-62): 1
- IC50 (TK-10): 23.6 µM
- IC50 [4]: 19.7 µM
- Ratio IC50 [9]: 0.3
- Ratio IC50 (MCF7 [10]): 2.3
- selectivity ratio [11]: 0.5
- IC50 (Plasmodium falciparum [2]): 0.0622 µM
- IC50 (MCF7 [5]): 8.73 µM
- Ratio IC50 [3]: 1.5

Structure (SMILES): COc1ccc(C(=O)/C=C/c2ccc(C(=O)O)cc2)cc1OC
- IC50 (Plasmodium falciparum [1]): 0.0108 µM
- Ratio IC50 [6]: 1.7
- Ratio IC50 [7]: 0.8
- IC50 [8]: 67.4 µM
- Ratio IC50 (WI-38): 3.6
- Ratio IC50 (UACC-62): 8.6
- IC50 (TK-10): 18.9 µM
- IC50 [4]: 7.87 µM
- Ratio IC50 [9]: 0.7
- Ratio IC50 (MCF7 [10]): 7.6
- selectivity ratio [11]: 6.2
- IC50 (Plasmodium falciparum [2]): 0.0108 µM
- IC50 (MCF7 [5]): 8.88 µM
- Ratio IC50 [3]: 1

Structure (SMILES): O=C(O)c1ccc(/C=C/C(=O)c2ccccc2)cc1
- IC50 (Plasmodium falciparum [1]): 0.0295 µM
- Ratio IC50 [6]: >1
- Ratio IC50 [7]: >0.4
- IC50 [8]: > 100 µM
- Ratio IC50 (WI-38): >3
- Ratio IC50 (UACC-62): >7
- IC50 (TK-10): 29.8 µM
- IC50 [4]: 13.9 µM
- Ratio IC50 [9]: >0.5
- Ratio IC50 (MCF7 [10]): >8
- selectivity ratio [11]: > 3.4
- IC50 (Plasmodium falciparum [2]): 0.0308 µM
- IC50 (MCF7 [5]): 11.9 µM
- Ratio IC50 [3]: 1

Structure (SMILES): Cc1ccc(C(=O)/C=C/c2ccc(C(=O)O[C@@H]3O[C@@H]4O[C@]5(C)CC[C@H]6[C@H](C)CC[C@@H]([C@H]3C)[C@@]46OO5)cc2)o1
- IC50 (Plasmodium falciparum [1]): 0.00198 µM
- Ratio IC50 [6]: 2451.7
- Ratio IC50 [7]: 2325.9
- IC50 [8]: 72.2 µM
- Ratio IC50 (WI-38): 20
- Ratio IC50 (UACC-62): 21.9
- IC50 (TK-10): 3.6 µM
- IC50 [4]: 3.29 µM
- Ratio IC50 [9]: 2240.1
- Ratio IC50 (MCF7 [10]): 21.1
- selectivity ratio [11]: 36500
- IC50 (Plasmodium falciparum [2]): 0.00147 µM
- IC50 (MCF7 [5]): 3.42 µM
- Ratio IC50 [3]: 0.7

Structure (SMILES): COc1ccc(C(=O)/C=C/c2ccc(C(=O)OC3O[C@@H]4O[C@]5(C)CC[C@H]6[C@H](C)CC[C@@H]([C@H]3C)[C@@]46OO5)cc2)cc1[N+](=O)[O-] (stereo partly drawn)
- IC50 (Plasmodium falciparum [1]): 0.00587 µM
- Ratio IC50 [6]: >3010
- Ratio IC50 [7]: >512
- IC50 [8]: > 100 µM
- Ratio IC50 (WI-38): >6
- Ratio IC50 (UACC-62): >13
- IC50 (TK-10): 17 µM
- IC50 [4]: 7.58 µM
- Ratio IC50 [9]: >1340
- Ratio IC50 (MCF7 [10]): >34
- selectivity ratio [11]: > 17000
- IC50 (Plasmodium falciparum [2]): 0.00566 µM
- IC50 (MCF7 [5]): 2.9 µM
- Ratio IC50 [3]: 1

Structure (SMILES): CC[C@H]1CN2CCc3cc(OC)c(OC)cc3[C@@H]2C[C@@H]1C[C@H]1NCCc2cc(OC)c(OC)cc21 [EMETINE]
- IC50 [8]: 0.05 µM
